According to US20100105729A1, “ARYL-SUBSTITUTED HETEROCYCLIC PDE4 INHIBITORS AS ANTI-INFLAMMATORY AGENTS” (KALYPSYS, INC., priority 2006, published 2010):

Columns and labels:
PDE4B = molecular target: T1, PDE4B (Homo sapiens, UniProt Q07343); experiment: PDE4 IMAP Assay; type: biochemical; conditions: catalytic domain of PDE4B, fluorescence polarization
T1 construct: hexa-histidine (His6) (N); made in house
How it was run: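 His-tagged PDE4B catalytic domain was preincubated with compound for 10 min, then given fluorescent cAMP substrate for 2 h at room temperature. IMAP binding reagent was added for 10–30 min to capture the nucleotide monophosphate product, and fluorescence polarization was read.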

PDE4 = PDE4 Cellular CNG Assay; type: cell-based; conditions: HEK293 cells stably expressing the CNG channel
Source text: Compounds may be screened for functional potency in in vitro cellular assays for their ability to inhibit the activity of phosphodiesterase (PDE) enzymes. A commercial membrane potential assay, Molecular Device's membrane potential assay kit, was modified and utilized to measure the inhibitory activity of compounds on PDE isoforms in living cells. The cellular assay utilizes genetically engineered cyclic nucleotide-gated (CNG) channels as cyclic-AMP (cAMP) sensors. On binding cAMP these ion channels open, allowing the flow of cations across the plasma membrane. CNG channel activity can be monitored by measuring Ca^2+influx in cell populations. The influx of Ca causes a change in membrane potential that is measured by voltage sensitive dyes. PDE inhibitors prevent the degradation of cAMP that is generated by adenylyl cyclases that are activated upon stimulation of G protein-coupled receptors (GPCR) linked to the cAMP pathway. In brief, Molecular Device's membrane potential dye was added to HEK293 cells stably expressing the CNG channel and incubated for 2 hours at room temperature. Test compounds were then added to the cells and incubated for 15 minutes. A GPCR agonist was then added to the cells to stimulate the cAMP pathway and incubated for 45 minutes. Fluorescent measurements were then conducted with either the Molecular Devices Acquest or Analyst. PDE inhibitors will inhibit the degradation of cAMP and cause an increase in fluorescent signal. Roflumilast and Rolipram are the positive controls used in the assay.

recombinant human PDE4 = conditions: reported value; read-out: IC50 with respect to inhibiting recombinant human PDE4; cited from earlier work

T1 sequence (Q07343 330-659 limits assumed, species assumed): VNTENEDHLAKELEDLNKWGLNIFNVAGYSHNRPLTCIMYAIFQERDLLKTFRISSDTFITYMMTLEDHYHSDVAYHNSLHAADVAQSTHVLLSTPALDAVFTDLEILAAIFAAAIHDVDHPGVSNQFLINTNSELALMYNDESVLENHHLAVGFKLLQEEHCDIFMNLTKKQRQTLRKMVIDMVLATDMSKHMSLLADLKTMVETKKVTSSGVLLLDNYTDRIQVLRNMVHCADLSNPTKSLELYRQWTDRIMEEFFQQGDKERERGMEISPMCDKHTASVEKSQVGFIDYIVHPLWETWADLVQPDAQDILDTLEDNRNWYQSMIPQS

| SMILES | inhibition at 10 µM (PDE4B) | PDE4 Cellular CNG Assay Activity at 10 μM (PDE4) | IC50 (recombinant human PDE4) |
| --- | --- | --- | --- |
| COc1ccc(C2=NN(C(=O)c3ccccc3Cl)C(c3ccc(F)cc3)C2)cc1OC (stereo not drawn) [Example 31, (2-chlorophenyl)(3-(3,4-dimethoxyphenyl)-5-(4-fluorophenyl)-4,5-dihydro-1H-pyrazol-1-yl)methanone] | ≥ 50% | + (+ indicates Activity ≧50% at 10 μM) |  |
| COc1ccc(C2=NN(C(=O)c3cccs3)C(c3ccccc3F)C2)cc1OC (stereo not drawn) [Example 40, (3-(3,4-dimethoxyphenyl)-5-(2-fluorophenyl)-4,5-dihydro-1H-pyrazol-1-yl)(thiophen-2-yl)methanone] | ≥ 50% | − (− indicates Activity <50% at 10 μM) |  |
| COc1ccc(C2CNC(=O)C2)cc1OC1CCCC1 (stereo not drawn) [rolipram] |  |  | ~200 nM |

Further lines, with some results ahead:

| inhibition at 10 µM (PDE4B) | SMILES | PDE4 Cellular CNG Assay Activity at 10 μM (PDE4) | IC50 (recombinant human PDE4) |
| --- | --- | --- | --- |
| ≥ 50% | COc1ccc(C2=NN(C(=O)c3cc(OC)c(OC)c(OC)c3)C(c3ccc(F)cc3)C2)cc1OC (stereo not drawn) [Example 42, (3-(3,4-dimethoxyphenyl)-5-(4-fluorophenyl)-4,5-dihydro-1H-pyrazol-1-yl)(3,4,5-trimethoxyphenyl)methanone] | + (+ indicates Activity ≧50% at 10 μM) |  |
| ≥ 50% | COc1ccc(C2=NN(C(=O)c3cc(OC)c(OC)c(OC)c3)C(c3cccc([N+](=O)[O-])c3)C2)cc1OC (stereo not drawn) [Example 77, (3-(3,4-dimethoxyphenyl)-5-(3-nitrophenyl)-4,5-dihydro-1H-pyrazol-1-yl)(3,4,5-trimethoxyphenyl)methanone] | + (+ indicates Activity ≧50% at 10 μM) |  |
